Experimental data taken from paper PMC5827777, “Synthesis and biological evaluation of RGD and isoDGR peptidomimetic-α-amanitin conjugates for tumor-targeting” (Beilstein Journal of Organic Chemistry, 2018).

Experiments:
αVβ5 receptor [1] = experiment: Inhibition of biotinylated vitronectin binding to αVβ5 receptor; settings: ratio of IC50 values of Table 1
[2] = target: T1, Recombinant human integrin αVβ3 (Homo sapiens, UniProt P05106+P06756); design: method as in PMID 22517378, PMID 23424096; settings: free ligands, Table 1; mean ± SD of triplicate determinations; read-out: IC50 αVβ3, inhibition of biotinylated vitronectin binding; cited from earlier work
T1 construct: purchased R&D Systems, Minneapolis, MN, USA

αVβ5 receptor [3] = target: αVβ5 receptor; design: method as in PMID 22517378, PMID 23424096; settings: free ligands, Table 1; mean ± SD of triplicate determinations; read-out: IC50 αVβ5, inhibition of biotinylated vitronectin binding; cited from earlier work

T1 sequence (P06756 31-992 limits assumed): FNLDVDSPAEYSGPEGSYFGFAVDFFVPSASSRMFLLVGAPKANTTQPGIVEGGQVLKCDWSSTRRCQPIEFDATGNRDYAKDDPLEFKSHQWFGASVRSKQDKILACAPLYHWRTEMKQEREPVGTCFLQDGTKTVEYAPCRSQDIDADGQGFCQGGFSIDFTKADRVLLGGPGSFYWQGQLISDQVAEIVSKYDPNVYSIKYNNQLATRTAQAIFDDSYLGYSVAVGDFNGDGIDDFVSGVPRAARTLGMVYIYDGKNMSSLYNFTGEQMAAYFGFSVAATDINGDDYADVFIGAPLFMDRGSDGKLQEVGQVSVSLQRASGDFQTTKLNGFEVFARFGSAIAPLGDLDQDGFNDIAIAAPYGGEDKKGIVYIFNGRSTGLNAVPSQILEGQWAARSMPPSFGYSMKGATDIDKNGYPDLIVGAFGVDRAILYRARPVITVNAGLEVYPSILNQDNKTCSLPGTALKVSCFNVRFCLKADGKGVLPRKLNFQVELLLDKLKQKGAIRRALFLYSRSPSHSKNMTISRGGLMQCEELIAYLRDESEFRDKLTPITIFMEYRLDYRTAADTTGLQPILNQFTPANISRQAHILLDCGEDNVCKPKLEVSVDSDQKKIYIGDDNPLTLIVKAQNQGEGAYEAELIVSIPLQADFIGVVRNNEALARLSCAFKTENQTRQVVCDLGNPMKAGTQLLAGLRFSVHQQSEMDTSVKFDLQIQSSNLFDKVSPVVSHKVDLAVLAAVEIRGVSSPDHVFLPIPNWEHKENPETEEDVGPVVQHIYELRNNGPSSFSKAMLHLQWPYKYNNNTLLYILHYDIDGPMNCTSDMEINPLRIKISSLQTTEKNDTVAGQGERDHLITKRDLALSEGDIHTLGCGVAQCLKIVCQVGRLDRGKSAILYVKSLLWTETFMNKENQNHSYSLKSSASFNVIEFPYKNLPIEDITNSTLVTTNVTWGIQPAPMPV
T1 sequence (P05106 27-718 limits assumed): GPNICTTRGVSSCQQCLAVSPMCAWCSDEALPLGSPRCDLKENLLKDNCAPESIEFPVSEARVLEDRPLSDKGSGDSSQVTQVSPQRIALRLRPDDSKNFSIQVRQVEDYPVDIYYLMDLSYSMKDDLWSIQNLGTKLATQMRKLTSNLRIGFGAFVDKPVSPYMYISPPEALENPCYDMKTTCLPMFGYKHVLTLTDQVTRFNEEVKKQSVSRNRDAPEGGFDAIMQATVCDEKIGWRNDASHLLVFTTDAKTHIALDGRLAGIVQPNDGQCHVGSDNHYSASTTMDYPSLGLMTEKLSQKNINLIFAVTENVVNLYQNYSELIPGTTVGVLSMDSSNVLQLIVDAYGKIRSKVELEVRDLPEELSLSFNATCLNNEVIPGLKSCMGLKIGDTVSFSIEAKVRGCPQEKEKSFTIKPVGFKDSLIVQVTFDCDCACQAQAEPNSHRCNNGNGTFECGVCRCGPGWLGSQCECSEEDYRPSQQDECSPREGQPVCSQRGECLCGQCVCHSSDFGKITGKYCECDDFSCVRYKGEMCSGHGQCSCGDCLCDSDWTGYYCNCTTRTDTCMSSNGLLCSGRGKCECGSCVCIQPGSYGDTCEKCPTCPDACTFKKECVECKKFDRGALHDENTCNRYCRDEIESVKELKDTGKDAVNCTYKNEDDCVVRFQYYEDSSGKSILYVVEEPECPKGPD

Q: Which results are given for `N=C(N)NCCC[C@@H]1NC(=O)CNC(=O)C[C@@H](C(=O)O)NC(=O)C[C@H]2NC(=O)[C@H](CNC1=O)N(Cc1ccccc1)C2=O` [Ligand 3, cyclo[DKP-isoDGR]]?
A: selectivity for αVβ3 in comparison with integrin αVβ5 (αVβ5 receptor [1]): 33–34 times; IC50 [2]: 9.2 ± 1.1 nM; IC50 (αVβ5 receptor [3]): 312 ± 21 nM
